Patent publication US11242327B2, “Analgesic compounds” (RECURIUM IP HOLDINGS, LLC, priority 2017, dated 2022)
Structures can show the parent of a compound that is named as a salt.

Experiments:
[1] = target: Opiate κ (Homo sapiens, UniProt P41145); assay: NSAIDS and Opioid Receptor Test: Opiate κ; type: binding
Protocol: (§1) Compounds were screened as DMSO solutions at 10 μM, 100 μM, or 200 μM and values represent percent inhibition of control-specific binding. […] As NSAID and opioid mechanisms of action are precluded, a person of ordinary skill in the art understands that undesirable side effects associated with inhibition of COX receptors in NSAIDs and activation of opiate receptors in opioids can be avoided by compounds described herein. Furthermore, opioids are known to lose their analgesic potency after to continued administration. (See Benyamin, et al. “Opioid Complications and Side Effects” Pain Physician 11 (2008): S105-S120). As the data indicates compounds described herein have a different mechanism action compared to opioids, a person of ordinary skill in the art would appreciate that compounds described herein would not be expected to lose their analgesic potency like opioids after continued admininistration.

[2] = target: T1, COX-2 (Homo sapiens, UniProt P35354); assay: NSAIDS and Opioid Receptor Test: COX-2; type: biochemical
T1 sequence (P35354 18-604): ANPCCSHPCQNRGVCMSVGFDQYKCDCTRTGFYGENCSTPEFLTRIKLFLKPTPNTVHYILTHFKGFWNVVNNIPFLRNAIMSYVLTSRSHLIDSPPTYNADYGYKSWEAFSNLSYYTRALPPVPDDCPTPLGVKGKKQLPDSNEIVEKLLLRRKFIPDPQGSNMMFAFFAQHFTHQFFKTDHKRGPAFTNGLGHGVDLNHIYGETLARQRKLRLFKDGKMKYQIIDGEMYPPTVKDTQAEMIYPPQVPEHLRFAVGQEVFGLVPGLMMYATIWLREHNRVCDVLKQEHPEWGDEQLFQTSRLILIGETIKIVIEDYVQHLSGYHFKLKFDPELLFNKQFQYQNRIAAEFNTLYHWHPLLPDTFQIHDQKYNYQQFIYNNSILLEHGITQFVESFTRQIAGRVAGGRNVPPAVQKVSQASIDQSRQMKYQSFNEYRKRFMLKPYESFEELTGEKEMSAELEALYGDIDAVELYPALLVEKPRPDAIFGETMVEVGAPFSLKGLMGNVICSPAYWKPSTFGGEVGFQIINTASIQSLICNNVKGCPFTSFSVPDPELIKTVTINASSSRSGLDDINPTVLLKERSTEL
Protocol: as §1

[3] = target: Opiate δ1 (Homo sapiens, UniProt P41143); assay: NSAIDS and Opioid Receptor Test: Opiate δ1; type: binding
Protocol: as §1

[4] = target: COX-1 (Homo sapiens, UniProt P23219); assay: NSAIDS and Opioid Receptor Test: COX-1; type: biochemical
Protocol: as §1

[5] = target: Opiate μ (Homo sapiens, UniProt P35372); assay: NSAIDS and Opioid Receptor Test: Opiate μ; type: binding
Protocol: as §1

[6] = system: adult male C57BL/6 mice; assay: Conditioned Place Preference (Abuse) Test; type: in vivo, mouse
Text: A conditioned place preference (CPP) model was used to assess the reward properties of compounds of formulae (Ie), or a pharmaceutically acceptable salt of any of the foregoing, in adult male C57BL/6 mice. The CPP model apparatus consisted of a Plexiglas© test unit having three (A, B, C) compartments (9 cm×9 cm×16 cm) configured to allow access to all chambers. Compartments A and C had textually distinct flooring and wall marking. Mice were placed in the middle compartment with free access to the other compartments. On day 1 and 2, the “naive chamber preference” was assessed by placing the animal in the middle chamber twice a day (AM and PM) for 30 min on two consecutive days, with the chamber showing the greatest residence time being called the “preferred chamber”. On “drug pairing days” (days 5, 6, 7 and 8) mice were injected IP with vehicle (50 mM citric acid) in the AM in the preferred chamber and the drug/vehicle in the afternoon in the non-preferred chamber for four consecutive days. On the morning of day 9 (the day after the last drug pairing), the “drug chamber preference” was assessed by placing the mouse (absent any injection) in the middle chamber, with free access to all chambers for 30 minutes. This was repeated five days later (day fourteen), with no intervening drug treatment.
The time spent on days 9 and 14 (e.g. […] respectively after the last drug treatment) in the drug associated chamber was the test datum and is represented in FIG. 1. […] In contrast, there was no increase in the non-preferred chamber residence time when the least-preferred chamber was paired with saline, APAP or test compounds 2 or 28 on either days 9 or 14, or days 0 or 5.

[7] = system: male Sprague-Dawley rats; assay: UVB Inflammatory Pain Test (thermal hyperalgesia); type: in vivo; settings: rat, oral, 300 mg/kg
Protocol: UVB irradiation to the surface of the hind paw was used to induce cutaneous inflammatory pain in non-fasted male Sprague-Dawley rats weighing 175-300 g. On Day −3, animals were restrained and the plantar surface of the left hind paw was exposed to 350 mJoules/cm^2 of UVB irradiation using a narrow band UVB light source (Daavlin®, Bryan, Ohio). Following UVB irradiation, animals were returned to their home cage. Thermal hyperalgesia was assessed prior to dosing and approximately 1, 2, and 4 hours after dosing on Day 0 using a radiant heat plantar test apparatus (IITC Life Sciences©; Woodland Hills, Calif.). Animals were placed in individual acrylic chambers on a glass platform warmed to 30±2° C. and allowed to acclimate to their surroundings for a minimum of 15 minutes before testing. The stimulus was presented to the plantar surface and the timer was activated. The stimulus intensity was set such that pre-injury paw withdrawal latencies were approximately 12-18 seconds. Paw withdrawal latency values were recorded at the first observed nocifensive behavior (paw withdrawal, flinching, biting and/or licking). Three paw withdrawal latencies were measured for each hind paw per time point. The mean of the 3 values was taken as the paw withdrawal latency for that time point. A maximum cutoff latency of 30 seconds was used to prevent injury to the animal. The mean and standard error of the mean (SEM) were determined for each paw for each treatment group at each time point. Test compounds were administered orally at concentrations of 3, 10, 30 or 100 mg/kg; celecoxib was administered orally at a concentration of 30 mg/kg; and acetaminophen was administered orally at a concentration of 300 mg/kg. The control group received the vehicle (sterile water). In Table 4, ‘A’ designates >8 seconds of paw withdrawal latency, ‘B’ designates >6 and <8 seconds of paw withdrawal latency, and ‘C’ designates <6 seconds of paw withdrawal latency.
The results provided in Table 4 are for oral administration in rats. […] Furthermore, while acetaminophen was dosed at 300 mg/kg, compounds of Formulae (Ie), (Ih) and (Ik), or a pharmaceutically acceptable salt of any of the foregoing, were dosed at 3 mg/kg, 10 mg/kg and 100 mg/kg.

[8] = system: male Sprague-Dawley rats; assay: Formalin Paw Test, rat, oral; type: in vivo; settings: 30 mg/kg
Protocol: (§2) One test compound or the vehicle was administered to each rat or mouse in each test group (8 rats or mice per group). Non-fasted male Sprague-Dawley rats weighing 200-225 g or non-fasted male ICR mice weighing 23±3 g were used. […] Responses were measured every 5 minutes after the formalin injection for 35 minutes. The results in Table 2 are for oral administration in rat and the results in Table 3 are for intraperitoneal administration in mouse. In Tables 2 and 3, 'A' designates <70 seconds of paw licking, 'B' designates >70 and <165 seconds of paw licking, and 'C' designates >165 seconds of paw licking.

[9] = target: Opiate δ2 (Homo sapiens, UniProt P41143); assay: NSAIDS and Opioid Receptor Test: Opiate δ2; type: binding
Protocol: as §1

[10] = Bioavailability Test (rat pharmacokinetics); type: in vivo
Protocol: Oral bioavailability of compounds of Formulae (Ie), (Ih), (Ik), and (Ir), or a pharmaceutically acceptable salt of any of the foregoing, were evaluated in fasted male Sprague-Dawley (SD) rats weighing 200-225g. Compounds were dosed at 3 mg/kg (IV) and 30 mg/kg (PO). Unless otherwise noted, compounds were dissolved in 0.9% saline for IV dosing and 100% sterile water for PO dosing. Pharmacokinetic parameters were determined using Phoenix WinNonlin (v7.0). […]

[11] = system: male ICR mice; assay: Formalin Paw Test, mouse, intraperitoneal; type: in vivo; settings: 60 mg/kg; for Early Phase, seconds of paw licking: early/acute phase (0-10 minutes); for Late Phase, seconds of paw licking: late/tonic phase (10-35 minutes)
Protocol: as §2

[12] = system: male Sprague-Dawley rats; assay: Post-Incisional (Brennan) Pain Test; type: in vivo; settings: rat, oral; for cumulative pain score, 4 h: 4 h post-dosing; for cumulative pain score, 24 h: 24 h post-dosing
Protocol: Incisional pain was induced in non-fasted male Sprague-Dawley rats weighing 180-300 g by making a 1-cm plantar incision in the left hind paw and is designed to mimic pain and sensitivity similar to what is reported by patients after surgery. Dosing occurred at the time of incision and spontaneous pain was measured 4 and 24 hours post-dosing using a cumulative pain score. The unrestrained animals were placed on a metal mesh platform and allowed to acclimate for about 15 min/ Each animal was closely observed during a 1-min period repeated every 5 min for 1 h (12 times total). Depending on the position in which the foot was found during the scoring period, a score of 0, 1, or 2 was given. Full weight bearing of the foot (score=0) was present if the skin on the plantar surface of the paw wound was blanched or distorted by the mesh. If the foot was completely off the mesh, or one or more instances of licking or flinching was observed, a score of 2 was recorded and the licking or flinching was noted but not counted. If the plantar surface of the paw touched the mesh without blanching or distorting, a score of 1 was given. The sum of the 12 scores obtained during the 1 h session was calculated (maximum score=24) for each animal. Observations were made during hours 4 and 24. Test articles were administered orally at concentrations of 10, 30 or 100 mg/kg and ketoprofen was administered subcutaneously at a concentration of 10 mg/kg. The control group received the vehicle (sterile water). In Table 6, ‘A’ designates a cumulative pain score of ≤11, ‘B’ designates >11 and ≤16, and ‘C’ designates >16.
The results provided in Table 6 are for oral administration in rats.

[13] = male, Sprague-Dawley, in vivo, IV 3 mg/kg, 0.9% saline
[14] = male, Sprague-Dawley, in vivo, PO 30 mg/kg, sterile water

Sequence of Opiate κ (P41145 whole entry): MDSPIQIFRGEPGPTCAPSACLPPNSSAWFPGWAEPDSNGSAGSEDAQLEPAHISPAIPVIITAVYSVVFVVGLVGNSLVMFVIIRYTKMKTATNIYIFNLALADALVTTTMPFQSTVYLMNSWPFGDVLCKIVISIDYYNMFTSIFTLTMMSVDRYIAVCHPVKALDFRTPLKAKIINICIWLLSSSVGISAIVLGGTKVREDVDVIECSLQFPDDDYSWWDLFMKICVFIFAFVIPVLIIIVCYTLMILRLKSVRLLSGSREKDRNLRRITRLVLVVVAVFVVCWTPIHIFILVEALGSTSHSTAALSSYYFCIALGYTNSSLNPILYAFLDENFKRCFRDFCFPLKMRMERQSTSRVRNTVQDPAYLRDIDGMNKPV
Sequence of Opiate μ (P35372 whole entry): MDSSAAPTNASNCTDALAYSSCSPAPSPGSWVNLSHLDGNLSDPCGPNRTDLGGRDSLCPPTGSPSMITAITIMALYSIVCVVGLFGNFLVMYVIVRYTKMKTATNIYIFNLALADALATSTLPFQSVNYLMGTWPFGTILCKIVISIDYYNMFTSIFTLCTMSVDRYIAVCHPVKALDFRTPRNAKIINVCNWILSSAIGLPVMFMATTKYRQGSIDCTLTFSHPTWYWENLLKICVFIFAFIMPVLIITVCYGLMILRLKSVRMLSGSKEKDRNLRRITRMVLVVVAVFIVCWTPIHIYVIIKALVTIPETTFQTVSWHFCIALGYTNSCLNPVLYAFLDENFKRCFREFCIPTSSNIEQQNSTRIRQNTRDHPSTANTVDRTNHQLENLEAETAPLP
Sequence of Opiate δ2 (P41143 whole entry): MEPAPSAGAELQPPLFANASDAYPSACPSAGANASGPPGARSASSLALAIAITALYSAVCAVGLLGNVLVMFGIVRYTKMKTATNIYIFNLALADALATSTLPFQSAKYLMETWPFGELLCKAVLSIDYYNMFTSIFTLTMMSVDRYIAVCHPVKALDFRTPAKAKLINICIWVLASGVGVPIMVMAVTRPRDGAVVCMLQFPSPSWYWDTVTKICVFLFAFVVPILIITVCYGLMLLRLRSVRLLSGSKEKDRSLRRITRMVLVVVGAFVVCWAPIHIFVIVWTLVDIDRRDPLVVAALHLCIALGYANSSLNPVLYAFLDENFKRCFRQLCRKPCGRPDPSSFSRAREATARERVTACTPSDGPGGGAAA
Sequence of COX-1 (P23219 24-599): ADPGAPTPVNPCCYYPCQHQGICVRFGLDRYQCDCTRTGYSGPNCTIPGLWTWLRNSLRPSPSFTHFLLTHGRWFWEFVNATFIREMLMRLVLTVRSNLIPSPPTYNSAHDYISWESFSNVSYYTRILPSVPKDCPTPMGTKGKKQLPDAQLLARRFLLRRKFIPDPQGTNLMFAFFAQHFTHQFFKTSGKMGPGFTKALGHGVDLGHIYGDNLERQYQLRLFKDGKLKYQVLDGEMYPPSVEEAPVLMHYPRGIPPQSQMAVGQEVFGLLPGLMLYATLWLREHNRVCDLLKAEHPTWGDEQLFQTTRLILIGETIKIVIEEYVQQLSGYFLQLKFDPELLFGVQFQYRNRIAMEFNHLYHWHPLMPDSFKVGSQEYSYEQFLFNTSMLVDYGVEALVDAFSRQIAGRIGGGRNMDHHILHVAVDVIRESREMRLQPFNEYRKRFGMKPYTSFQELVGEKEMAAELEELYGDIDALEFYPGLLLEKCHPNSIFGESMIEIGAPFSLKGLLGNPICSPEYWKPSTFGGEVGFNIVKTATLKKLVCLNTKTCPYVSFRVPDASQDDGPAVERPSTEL
Sequence of Opiate δ1 (P41143 whole entry): as the sequence (P41143 whole entry) above

Compound: CC(=O)Nc1ccc(O)cc1 [Acetaminophen, reference compound]
- inhibition at 10 µM ([1]; 10 μM): -1%
- inhibition at 10 µM ([2]; read-out: % Inhibition, COX-2 (human)): 3%
- inhibition at 10 µM [3]: 2%
- inhibition at 10 µM ([4]; read-out: % Inhibition, COX-1 (human)): -7%
- inhibition at 10 µM ([5]; 10 μM): -5%
- least preferred (drug associated) chamber residence time ([6]; mouse, in vivo, ip): no increase
- paw withdrawal latency, 1 h ([7]; 1 h after dosing): A (>8 seconds of paw withdrawal latency)
- paw withdrawal latency, 2 h ([7]; 2 h after dosing): A (>8 seconds of paw withdrawal latency)
- paw withdrawal latency, 4 h ([7]; 4 h after dosing): A (>8 seconds of paw withdrawal latency)

Compound: Cl.NC12CC(c3cccc(C(F)(F)F)n3)(C1)C2 [Compound 13, 3-(6-(Trifluoromethyl)pyridin-2-yl)bicyclo[1.1.1]pentan-1-amine hydrochloride]
- inhibition at 200 µM ([1]; 200 μM): 33%
- inhibition at 200 µM ([2]; 200 μM): 8%
- Early Phase, seconds of paw licking ([8]; early/acute phase (0-10 minutes)): A (<70 seconds of paw licking)
- Late Phase, seconds of paw licking ([8]; late/tonic phase (10-35 minutes)): A (<70 seconds of paw licking)
- inhibition at 200 µM ([4]; 200 μM): 6%
- inhibition at 200 µM ([5]; 200 μM): 56%
- inhibition at 200 µM ([9]; 200 μM): 6%
- F ([10]; PO 30 mg/kg vs IV 3 mg/kg): 16%
- AUC(0-inf) [10, 13]: 3 µM·h
- clearance [10, 13]: 73 mL/min/kg
- half-life [10, 13]: 9.5 h
- Vd ([10]; male, Sprague-Dawley, in vivo, IV 3 mg/kg, 0.9% saline, read-out: Vdss): 20.2 L/kg
- AUC(0-inf) [10, 14]: 35 µM·h
- Cmax [10, 14]: 11 µM
- Tmax [10, 14]: 0.6 h
- half-life [10, 14]: 6.8 h

Compound: CC(C)[C@H](N)C(=O)NC12CC(C(F)(F)F)(C1)C2 [Compound 23, (S)-2-Amino-3-methyl-N-(3-(trifluoromethyl)bicyclo[1.1.1]pentan-1-yl)butanamide hydrochloride]
- Early Phase, seconds of paw licking [11]: A (<70 seconds of paw licking)
- Late Phase, seconds of paw licking [11]: C (>165 seconds of paw licking)

Compound: CCOC(=O)NC12CC(C(F)(F)F)(C1)C2 [Compound 24, Ethyl (3-(trifluoromethyl)bicyclo[1.1.1]pentan-1-yl)carbamate]
- Early Phase, seconds of paw licking [11]: A (<70 seconds of paw licking)
- Late Phase, seconds of paw licking [11]: B (>70 and <165 seconds of paw licking)

Compound: NC12CC(C(F)(F)F)(C1)C2 [Compound 28, 3-(trifluoromethyl)bicyclo[1.1.1]pentan-1-amine hydrochloride]
- inhibition at 100 µM ([1]; 100 μM): 1%
- cumulative pain score, 4 h ([12]; 10 mg/kg): C (>16)
- cumulative pain score, 24 h ([12]; 10 mg/kg): C (>16)
- cumulative pain score, 4 h ([12]; 30 mg/kg): B (>11 and ≤16)
- cumulative pain score, 24 h ([12]; 30 mg/kg): B (>11 and ≤16)
- cumulative pain score, 4 h ([12]; 100 mg/kg): B (>11 and ≤16)
- cumulative pain score, 24 h ([12]; 100 mg/kg): A (a cumulative pain score of ≤11)
- inhibition at 100 µM ([5]; 100 μM): 3%
- inhibition at 100 µM ([9]; 100 μM): 2%
- least preferred (drug associated) chamber residence time ([6]; mouse, in vivo, ip): no increase

Compound: CN1CC[C@]23c4c5ccc(O)c4O[C@H]2[C@@H](O)C=C[C@H]3[C@H]1C5 [morphine, reference compound]
- least preferred (drug associated) chamber residence time ([6]; mice, IP, drug pairing 4 consecutive days, assessed on day 9): significant increase
- least preferred (drug associated) chamber residence time ([6]; mice, IP, drug pairing 4 consecutive days, assessed on day 14): significant increase
